# Measured values taken from article PMC10296061, “Inhibition of the Mitochondrial Carnitine/Acylcarnitine Carrier by Itaconate through Irreversible Binding to Cysteine 136: Possible Pathophysiological Implications” (Biomolecules, 2023).
# Numbering of substitutions follows the chain as printed.
# Legend:
# Assay type in all cases: biochemical
# [1] = biological target: T1, native mitochondrial carnitine/acylcarnitine carrier (CAC) (Rattus norvegicus, UniProt P97521); assay: [3H]carnitine/carnitine antiport in proteoliposomes reconstituted with native CAC from rat liver mitochondria; conditions: 10 min incubation, 0.1 mM [3H]carnitine, pH 7.0, read-out: IC50 for itaconate inhibition of [3H]carnitine/carnitine antiport
# T1 construct: from tissue; host or cells: rat liver mitochondria
# T1 sequence (P97521 1-301): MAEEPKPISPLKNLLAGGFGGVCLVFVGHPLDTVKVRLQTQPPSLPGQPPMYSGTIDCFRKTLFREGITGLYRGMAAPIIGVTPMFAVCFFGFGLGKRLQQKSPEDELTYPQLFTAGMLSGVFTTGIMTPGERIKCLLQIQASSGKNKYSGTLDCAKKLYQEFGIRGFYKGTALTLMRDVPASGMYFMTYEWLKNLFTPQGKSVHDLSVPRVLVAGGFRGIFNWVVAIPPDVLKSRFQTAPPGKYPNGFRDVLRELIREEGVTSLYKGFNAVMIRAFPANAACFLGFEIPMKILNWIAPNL
# Text: As previously described, recombinant CAC (WT and mutants) and ORC1 proteins were used for proteoliposome formation. For experiments with native CAC, ORC1, or ANT proteins, rat liver mitochondria, or HeLa cell mitochondria, the latter for the CAC alone, were first purified using the standard procedure of cell disruption and differential centrifugation. Then proteins were extracted using 3% Triton X-100 and reconstituted as described for the recombinant proteins. The concentration of intraliposomal carnitine and ornithine was 15 mM and 30 mM, respectively, in all samples.
# To test the transport activity of the CAC, 550 μL of proteoliposomes was passed through a Sephadex G-75 column to remove the external substrate. Six hundred μL of the turbid eluate was collected, divided into samples of 100 μL each, and used for transport measurement by the inhibitor-stop method. Transport was started by adding 0.1 mM [^3H]carnitine ([^3H]ornitine or [^3H]ATP) to proteoliposome samples and stopped with 1.5 mM NEM (N-ethylmaleimide) at the indicated time interval. […] Transport rates were measured in 10 min, i.e., within the initial linear range of the time course, at 25 °C. After terminating the transport reaction, the external substrate was removed by chromatography on the Sephadex G-75 column, and the intraliposomal radioactivity was measured. […]
# CAC C155A mutant = biological target: T2, CAC C155A mutant (Rattus norvegicus, UniProt P97521, C155A); assay: Transport assay in proteoliposomes, CAC mutant C155A; conditions: read-out: IC50 for itaconate inhibition
# T2 construct: made in house; host or cells: E. coli C0214
# T2 sequence (P97521 1-301 C155A): T1 sequence (P97521 1-301) with C155A
# Method: (§1) As previously described, the pMW7-WTratCAC recombinant plasmid was used for over-expressing the rat CAC [22]. The overlap extension method was used to introduce the mutations; in the main time, NdeI and HindIII restriction sites were also added using appropriate primers. The PCR products were purified by the QIAEX II Gel Extraction Kit (QIAGEN) and digested with NdeI and HindIII and then ligated into the pMW7. All mutations were verified by DNA sequencing. The resulting plasmid constructs were transformed into E. coli C0214. Overexpression, inclusion body fraction preparation, and purification of the CAC proteins were performed as previously described. […]
# (§2) To test the transport activity of the CAC, 550 μL of proteoliposomes was passed through a Sephadex G-75 column to remove the external substrate. […] Transport rates were measured in 10 min, i.e., within the initial linear range of the time course, at 25 °C. After terminating the transport reaction, the external substrate was removed by chromatography on the Sephadex G-75 column, and the intraliposomal radioactivity was measured. […]
# Figure 3 Identification of residue responsible for itaconate inhibition. […] Transport activity of the WT (○), C136A (●), C155A (Δ), C23V/C58V/C89S/C155V/C283S (▲), and C23V/C58V/C89S/C136V/C155V/C283S (□) was measured by adding 0.1 mM [^3H]carnitine after treatment by itaconate at the indicated concentrations. […]
# CAC K135A mutant = biological target: T3, CAC K135A mutant (Rattus norvegicus, UniProt P97521, K135A); assay: Transport assay in proteoliposomes, CAC mutant K135A; conditions: read-out: IC50 for itaconate inhibition
# T3 construct: made in house; host or cells: E. coli C0214
# T3 sequence (P97521 1-301 K135A): T1 sequence (P97521 1-301) with K135A
# Method: as §1, §2
# Figure 9 Dose–response analysis of inhibition by itaconate of WT protein (○) and the K135A (●) mutant was performed by measuring the transport activity with or without itaconate treatment. […] The data are expressed as a percent of the own controls and are means ± SD from three independent experiments.
structure (smiles),measurement,setting,value
C=C(CC(=O)O)C(=O)O [itaconate],IC50,[1],11 ± 4.6 mM
same,IC50,CAC C155A mutant,3.8 ± 0.64 mM
same,IC50,CAC K135A mutant,16 ± 2.6 mM
